For 15 molecules, EC50 and Ki results are on record in patent US11673894B2, “Imidazopyrimidines and triazolopyrimidines as A2A / A2B inhibitors” (Incyte Corporation, priority 2018, dated 2023).

pEC50, pKi: −log10 of the molar value.

Experiment [1] has as its target human adenosine A2B receptor (Homo sapiens (Human), UniProt P29275). The experiment in a line: Adenosine A2B Receptor Cyclic AMP GS Assay. Type of experiment: cell-based. The note with it: HEK-293 cells expressing human A2B receptor; agonist NECA at 12 nM; cAMP accumulation (FRET); read-out: A2B_cAMP_EC50. On the procedure: Stably transfected HEK-293 cells expressing the human adenosine A2B receptor (Perkin Elmer) were maintained in MEM culture medium with 10% FBS and 100 μg/ml Geneticin (Life Technologies). 18 to 24 hours prior to assay, geneticin was removed from culture. The cisbio cAMP-GS Dynamic kit utilizing the FRET (Fluorescence Resonance Energy Transfer) technology was used to measure cAMP accumulation in the cells. Compounds of the present disclosure at an appropriate concentration were mixed with 10000 cells/well in white 96 well half area plates (Perkin Elmer) for 30 min at RT gently shaking. Agonist, NECA (R&D Technologies) at 12 nM was added to each well for 60 min at RT gently shaking. Detection reagents, d2-labeled cAMP (acceptor) and anti-cAMP cryptate (donor) were added to each well for 60 min at RT gently shaking. Plates were read on Pherastar (BMG Labtech), fluorescence ratio 665/620 was calculated and EC50 determination was performed by fitting the curve of percent of control versus the log of the compound concentration using GraphPad Prism.
For orientation: Cyclic AMP is a second messenger, typically raised through Gs and lowered through Gi signalling.

The target of the next experiment is Adenosine A2A receptor (Homo sapiens (Human), UniProt P29274). The experiment can be described thus: A2A Tag-lite HTRF Assay. Conditions: Tag-lite Adenosine A2A labeled cells; A2A Receptor Red antagonist fluorescent ligand 12.5 nM; one-site competitive binding model; read-out: A2A_Ki. The source says:
The final concentration of DMSO was 1%.
In general terms: TR-FRET usually uses a lanthanide donor and a delayed reading to cut background.

Adenosine A2A receptor, sequence (P29274 whole entry): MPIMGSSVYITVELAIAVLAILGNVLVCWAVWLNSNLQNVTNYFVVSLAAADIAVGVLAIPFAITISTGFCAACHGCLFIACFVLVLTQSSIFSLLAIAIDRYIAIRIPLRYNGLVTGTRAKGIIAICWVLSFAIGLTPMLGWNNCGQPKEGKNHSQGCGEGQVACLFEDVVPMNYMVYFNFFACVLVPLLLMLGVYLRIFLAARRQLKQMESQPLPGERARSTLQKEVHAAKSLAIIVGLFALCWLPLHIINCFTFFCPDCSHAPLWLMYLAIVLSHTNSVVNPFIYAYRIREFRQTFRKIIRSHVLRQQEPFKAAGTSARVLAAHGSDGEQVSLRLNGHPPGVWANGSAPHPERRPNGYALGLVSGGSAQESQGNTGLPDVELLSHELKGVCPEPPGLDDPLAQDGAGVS
human adenosine A2B receptor, sequence (P29275 whole entry): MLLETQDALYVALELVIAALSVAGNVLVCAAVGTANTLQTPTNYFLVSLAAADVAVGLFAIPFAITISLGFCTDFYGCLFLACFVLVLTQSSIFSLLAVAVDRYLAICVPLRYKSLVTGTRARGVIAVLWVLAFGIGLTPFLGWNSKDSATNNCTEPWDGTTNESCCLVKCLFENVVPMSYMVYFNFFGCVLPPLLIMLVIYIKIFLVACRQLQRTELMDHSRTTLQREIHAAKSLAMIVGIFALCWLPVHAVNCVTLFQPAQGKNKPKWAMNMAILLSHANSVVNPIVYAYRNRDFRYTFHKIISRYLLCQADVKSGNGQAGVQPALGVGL

As for `N#Cc1cccc(-c2nc(N)n3nc(C(O)c4c(F)cccc4F)nc3c2-c2ccncn2)c1` (single isomer, unassigned) [Example 76, 3-(5-Amino-2-((2,6-difluorophenyl)(hydroxy)methyl)-8-(pyrimidin-4-yl)-[1,2,4]triazolo[1,5-c]pyrimidin-7-yl)benzonitrile], the pEC50 in experiment [1] is over 8.00.

Turning to `N#Cc1cccc(-c2nc(N)n3nc(C(O)c4c(F)cccc4F)nc3c2-c2ccncn2)c1` (single isomer, unassigned) [Example 77, 3-(5-Amino-2-((2,6-difluorophenyl)(hydroxy)methyl)-8-(pyrimidin-4-yl)-[1,2,4]triazolo[1,5-c]pyrimidin-7-yl)benzonitrile], in experiment [1], the pEC50 was 7.00 to 8.00. Consider `Cc1cc(-c2c(-c3cccc(C#N)c3)nc(N)n3ccnc23)cc(C)n1` [Example 1, 3-(5-Amino-8-(2,6-dimethylpyridin-4-yl)imidazo[1,2-c]pyrimidin-7-yl)benzonitrile], for which the pKi at Adenosine A2A receptor was over 8.00. The pEC50 in experiment [1] is 6.00 to 7.00.

For `Cc1cc(-c2c(-c3cnc4c(c3)CCN4)nc(N)n3ccnc23)cc(C)n1` [Example 2, 7-(2,3-Dihydro-1H-pyrrolo[2,3-b]pyridin-5-yl)-8-(2,6-dimethylpyridin-4-yl)imidazo[1,2-c]pyrimidin-5-amine], on Adenosine A2A receptor, the pKi was 6.00 to 7.00. The same measure, in the same setting: with `Cc1cc(-c2c(-c3ccccc3)nc(N)n3c(CN4CCOCC4)cnc23)cc(C)n1` [Example 3, 8-(2,6-Dimethylpyridin-4-yl)-3-(morpholinomethyl)-7-phenylimidazo[1,2-c]pyrimidin-5-amine] the figure was 7.00 to 8.00. As for `COc1cccc(-c2nc(N)n3ccnc3c2-c2ccncc2)c1` [Example 4, 7-(3-Methoxyphenyl)-8-(pyridin-4-yl)imidazo[1,2-c]pyrimidin-5-amine], the pKi at Adenosine A2A receptor is over 8.00. Moreover, the pEC50 in experiment [1] was over 8.00. As for `Nc1nc(-c2ccncc2)c(-c2ccncc2)c2nccn12` [Example 5, 7,8-Di(pyridin-4-yl)imidazo[1,2-c]pyrimidin-5-amine], at Adenosine A2A receptor, the pKi is 7.00 to 8.00. For the same molecule, the pEC50 in experiment [1] was 7.00 to 8.00.

As for `Cc1occc1-c1nc(N)n2ccnc2c1-c1ccncc1` [Example 6, 7-(2-Methylfuran-3-yl)-8-(pyridin-4-yl)imidazo[1,2-c]pyrimidin-5-amine], the pKi on Adenosine A2A receptor is 7.00 to 8.00. As for `Nc1nc(-c2ccccc2F)c(-c2ccncc2)c2nccn12` [Example 7, 7-(2-Fluorophenyl)-8-(pyridin-4-yl)imidazo[1,2-c]pyrimidin-5-amine], the pKi on Adenosine A2A receptor is 7.00 to 8.00. Besides, the pEC50 in experiment [1] is 7.00 to 8.00. On to `Nc1nc(-c2cc3ccccc3o2)c(-c2ccncc2)c2nccn12` [Example 8, 7-(Benzofuran-2-yl)-8-(pyridin-4-yl)imidazo[1,2-c]pyrimidin-5-amine], for which the pKi on Adenosine A2A receptor is 6.00 to 7.00. In the case of `Cc1cc(-c2c(-c3cnn(C)c3)nc(N)n3ccnc23)ccn1` [Example 9, 7-(1-Methyl-1H-pyrazol-4-yl)-8-(2-methylpyridin-4-yl)imidazo[1,2-c]pyrimidin-5-amine], the pKi at Adenosine A2A receptor is 7.00 to 8.00.

Regarding `CCOC(=O)c1cn2c(N)nc(-c3ccccc3)c(-c3ccnc(C)c3)c2n1` [Example 11, Ethyl 5-amino-8-(2-methylpyridin-4-yl)-7-phenylimidazo[1,2-c]pyrimidine-2-carboxylate], the pKi on Adenosine A2A receptor was 7.00 to 8.00. Still for that read-out and setting: with `COC(=O)c1cc(-c2cn3c(N)nc(-c4ccccc4)c(-c4ccncc4)c3n2)on1` [Example 12, Methyl 5-(5-amino-7-phenyl-8-(pyridin-4-yl)imidazo[1,2-c]pyrimidin-2-yl)isoxazole-3-carboxylate] the figure was 7.00 to 8.00; with `CCOc1ccc(-c2cnc3c(-c4ccnc(C)c4)c(-c4ccccc4)nc(N)n23)cc1` [Example 13, 3-(4-Ethoxyphenyl)-8-(2-methylpyridin-4-yl)-7-phenylimidazo[1,2-c]pyrimidin-5-amine], 7.00 to 8.00. Same read-out and setting: with `CCNC(=O)c1cn2c(N)nc(-c3ccccc3)c(-c3cc(C)[n+]([O-])c(C)c3)c2n1` [Example 23, 4-(5-Amino-2-(ethylcarbamoyl)-7-phenylimidazo[1,2-c]pyrimidin-8-yl)-2,6-dimethylpyridine 1-oxide] the figure was over 8.00.
